How the values were obtained:
[1] = target: T1, Sirt2 (α-tubulin Lys40 deacetylation) (Homo sapiens, UniProt Q8IXJ6); assay: Tubulin deacetylation assay in HEK cell lysates with added Sirt2; assay type: biochemical; conditions: 100 μM compound, 1 μg Sirt2
T1 construct: Human gene fragment comprising Sirt2 residues 34-356; His-tag with linker comprising a TEV protease cleavage site (N, cleaved yes); made in house; host or cells: E. coli Rosetta2; the protein was added to HEK 293T cell lysate
T1 sequence (Q8IXJ6 34-356): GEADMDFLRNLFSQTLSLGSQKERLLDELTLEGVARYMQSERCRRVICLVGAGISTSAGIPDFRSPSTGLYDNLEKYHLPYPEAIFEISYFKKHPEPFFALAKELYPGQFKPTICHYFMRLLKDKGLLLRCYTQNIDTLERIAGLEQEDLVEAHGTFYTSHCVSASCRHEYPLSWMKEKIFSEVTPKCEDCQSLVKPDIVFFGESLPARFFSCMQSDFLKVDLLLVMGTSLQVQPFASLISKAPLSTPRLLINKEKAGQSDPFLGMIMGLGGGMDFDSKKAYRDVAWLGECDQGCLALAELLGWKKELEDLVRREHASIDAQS
Method: Our novel compounds 3 and 4 are potent and specific Sirt2 inhibitors in vitro, and we next tested the effect of 4 (compound 3 is likely to be sensitive to esterase activity in lysates) on the Sirt2-dependent deacetylation of an in vivo substrate in a physiological environment. The acetylation levels of the Sirt2-deacetylation site Lys40 in α-tubulin [12] were analyzed in HEK cell lysates by using an acetyl-Lys40 specific antibody (Figure 4a). […] Thus, compound 4 is an inhibitor for the physiological α-tubulin deacetylation activity of Sirt2.
HEK 293T cells were grown in DMEM medium (PAN Biotech) supplemented with 10% fetal bovine serum (PAN Biotech) at 37°C and 5% CO2. Cells were harvested, washed with PBS, and resuspended and lysed using hypotonic buffer (10mM Tris-HCl, pH 8.0, 3mM KCl) supplemented with protease inhibitors cocktail. Cell debris was removed by centrifugation (10,000g, 10 minutes) at 4°C, and 50μl reaction were prepared with identical amounts of cell lysate and either 100 μM compound 4, 1 μg Sirt2, or both. All samples further contained the same amount of DMSO (to account for the solvent of the stock of 4) and 25 mM HEPES (pH 7.5; to compensate for the solvent of the NAD^+ stock). […]

Sirt1 = target: T2, Sirt1 (Homo sapiens, UniProt Q96EB6); assay: in vitro activity of Sirt1; assay type: biochemical; conditions: concentration of 100 μM
T2 sequence (Q96EB6 1-747): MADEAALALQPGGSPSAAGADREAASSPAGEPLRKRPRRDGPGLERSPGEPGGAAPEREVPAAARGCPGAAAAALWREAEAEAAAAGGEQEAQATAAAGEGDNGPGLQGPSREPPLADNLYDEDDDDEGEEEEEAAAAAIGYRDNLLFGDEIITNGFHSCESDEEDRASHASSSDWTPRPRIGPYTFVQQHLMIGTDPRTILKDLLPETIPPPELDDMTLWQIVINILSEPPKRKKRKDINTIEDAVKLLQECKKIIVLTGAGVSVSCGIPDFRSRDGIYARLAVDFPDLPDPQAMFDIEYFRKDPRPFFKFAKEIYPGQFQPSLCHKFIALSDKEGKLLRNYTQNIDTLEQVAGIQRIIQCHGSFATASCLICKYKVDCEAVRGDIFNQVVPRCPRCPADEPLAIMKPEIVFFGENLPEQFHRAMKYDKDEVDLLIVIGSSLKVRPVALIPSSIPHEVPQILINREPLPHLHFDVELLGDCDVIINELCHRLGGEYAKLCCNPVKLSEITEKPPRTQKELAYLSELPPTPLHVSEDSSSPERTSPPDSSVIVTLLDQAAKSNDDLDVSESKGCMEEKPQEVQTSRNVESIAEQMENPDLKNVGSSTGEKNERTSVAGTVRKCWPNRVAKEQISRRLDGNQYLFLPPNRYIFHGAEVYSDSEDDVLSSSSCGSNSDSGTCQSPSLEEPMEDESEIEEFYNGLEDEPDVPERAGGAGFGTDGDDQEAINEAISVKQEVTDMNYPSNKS

Structure (SMILES): CC12Cc3cnc(-c4ccccc4)nc3CC1CCC1C2CCC2(C)C1CCC2(C)O (centres unmarked) [CSC13, 1,11a,13a-trimethyl-8-phenyl-2,3,3a,3b,4,5,5a,6,11,11a,11b,12,13,13a-tetradecahydro-1H-cyclopenta[5,6]naphtho[1,2-g]quinazolin-1-ol]
- effect on Sirt2-dependent α-tubulin Lys40 deacetylation [1]: the deacetylation effect was decreased
- effect on the in vitro activity of Sirt1 (Sirt1): only a weak inhibitory effect
